Reference: PubChem BioAssay AID248 (DTP/NCI, 2004)
Values joined by “and” are separate entries in the source; they are usually repeats but may differ in a detail not shown here. Equal values may be shown once. Toxic doses and inconclusive results are not listed.

Test system: L1210 leukemia ip in BDF1 mice, survival T/C
Assay: NCI In Vivo Anticancer Drug Screen. Data for tumor model L1210 Leukemia (intraperitoneal) in B6D2F1 (BDF1) mice
Settings: endpoint: mean survival time, higher = longer survival
How it was run: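 Mice bearing the transplanted tumor received compound or vehicle. Survival of the treated group was divided by that of the vehicle-treated control group to give the ratio.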

[1] = dose: 100.0 mg/kg/injection, schedule: Q04DX003 (ip), vehicle: Klucel (hydroxypropylcellulose) (HPC)
[2] = dose: 200.0 mg/kg/injection, schedule: Q04DX003 (ip), vehicle: Klucel (hydroxypropylcellulose) (HPC)
[3] = dose: 25.0 mg/kg/injection, schedule: Q01DX009 (ip), vehicle: saline with Tween-80
[4] = dose: 50.0 mg/kg/injection, schedule: Q01DX009 (ip), vehicle: saline with Tween-80
[5] = dose: 100.0 mg/kg/injection, schedule: Q01DX009 (ip), vehicle: saline with Tween-80
[6] = dose: 200.0 mg/kg/injection, schedule: Q04DX003 (ip), vehicle: saline with Tween-80
[7] = dose: 400.0 mg/kg/injection, schedule: Q04DX003 (ip), vehicle: saline with Tween-80
[8] = dose: 100.0 mg/kg/injection, schedule: Q01DX001 (ip), vehicle: carboxymethylcellulose (CMC)
[9] = dose: 200.0 mg/kg/injection, schedule: Q01DX001 (ip), vehicle: carboxymethylcellulose (CMC)
[10] = dose: 400.0 mg/kg/injection, schedule: Q01DX001 (ip), vehicle: carboxymethylcellulose (CMC)
[11] = dose: 100.0 mg/kg/injection, schedule: Q01DX001 (ip), vehicle: saline
[12] = dose: 200.0 mg/kg/injection, schedule: Q01DX001 (ip), vehicle: saline
[13] = dose: 400.0 mg/kg/injection, schedule: Q01DX001 (ip), vehicle: saline
[14] = dose: 100.0 mg/kg/injection, schedule: Q01DX009 (ip), vehicle: Klucel (hydroxypropylcellulose) (HPC)
[15] = dose: 200.0 mg/kg/injection, schedule: Q01DX009 (ip), vehicle: Klucel (hydroxypropylcellulose) (HPC)
[16] = dose: 400.0 mg/kg/injection, schedule: Q01DX009 (ip), vehicle: Klucel (hydroxypropylcellulose) (HPC)
[17] = dose: 400.0 mg/kg/injection, schedule: Q04DX003 (ip), vehicle: Klucel (hydroxypropylcellulose) (HPC)

For `Cc1c2ccnc(-c3ccc(F)cc3)c2cc2c1[nH]c1ccccc12`, the T/C (dose: 16.0 mg/kg/injection, schedule: Q01DX005 (ip), vehicle: saline) was 100 % of control, the T/C (dose: 32.0 mg/kg/injection, schedule: Q01DX005 (ip), vehicle: saline) was 100 % of control and the T/C (dose: 64.0 mg/kg/injection, schedule: Q01DX005 (ip), vehicle: saline) was 105 % of control. For the same molecule, the T/C (dose: 128.0 mg/kg/injection, schedule: Q01DX005 (ip), vehicle: saline) was 103 % of control.

In the case of `O=C(COc1cccc(Cl)c1Cl)Nc1ccc[n+](Cc2ccc(S(=O)(=O)F)cc2)c1`, the T/C [1] is reported as 104 % of control and the T/C [2] is reported as 100 % of control.

With `CCCCCCCCCCCCCCC(=O)O` the T/C (dose: 100.0 mg/kg/injection, schedule: Q01DX001 (ip), vehicle: Klucel (hydroxypropylcellulose) (HPC)) was 108 % of control, the T/C (dose: 200.0 mg/kg/injection, schedule: Q01DX001 (ip), vehicle: Klucel (hydroxypropylcellulose) (HPC)) was 93 % of control and the T/C (dose: 400.0 mg/kg/injection, schedule: Q01DX001 (ip), vehicle: Klucel (hydroxypropylcellulose) (HPC)) was 93 % of control.

For `CCCCN(CCCC)CN(CCCC)CCCC`, the T/C [3] was 97 % of control, the T/C [4] was 100 % of control and the T/C [5] was 100 % of control. The T/C (dose: 100.0 mg/kg/injection, schedule: Q04DX002 (ip), vehicle: saline) was 95 % of control and the T/C (dose: 200.0 mg/kg/injection, schedule: Q04DX002 (ip), vehicle: saline) was 95 % of control.

In the case of `Nc1nc(=O)n(CC(=O)c2cccs2)cc1F`, the T/C [3] is reported as 96 % of control, the T/C [4] is reported as 98 % of control and 87 % of control and the T/C [5] is reported as 96 % of control and 98 % of control. For the same molecule, the T/C (dose: 100.0 mg/kg/injection, schedule: Q04DX003 (ip), vehicle: saline with Tween-80) was 97 % of control, the T/C [6] was 103 % of control and the T/C [7] was 97 % of control.

For `Nc1cc2c(cc1[N+](=O)[O-])-c1ccccc1/C2=N\O`, the T/C [8] was 91 % of control, the T/C [9] was 100 % of control and the T/C [10] was 88 % of control.

For `CC(C)CCOP(=S)(N1CC1)N1CC1`, the T/C (dose: 2.0 mg/kg/injection, schedule: Q01DX015 (ip), vehicle: carboxymethylcellulose (CMC)) was 101 % of control, the T/C (dose: 4.0 mg/kg/injection, schedule: Q01DX015 (ip), vehicle: carboxymethylcellulose (CMC)) was 103 % of control and the T/C (dose: 44.4 mg/kg/injection, schedule: Q01DX001 (ip), vehicle: carboxymethylcellulose (CMC)) was 117 % of control. The T/C [8] was 164 % of control.

For `CC(C)=CCOc1ccc(C(=O)O)cc1`, the T/C [11] was 100 % of control, the T/C [12] was 116 % of control and the T/C [13] was 107 % of control.

In the case of `c1ccc2c(c1)Nc1cc3ccccc3cc1O2`, the T/C (dose: 50.0 mg/kg/injection, schedule: Q01DX001 (ip), vehicle: carboxymethylcellulose (CMC)) is reported as 101 % of control, the T/C [8] is reported as 92 % of control and the T/C [9] is reported as 97 % of control. For the same molecule, the T/C [10] was 90 % of control.

In the case of `CCNC1=C(N2CC2)C(=O)C(NCC)=C(N2CC2)C1=O`, the T/C (dose: 0.04 mg/kg/injection, schedule: Q01DX009 (ip), vehicle: saline) is reported as 95 % of control and 102 % of control, the T/C (dose: 0.09 mg/kg/injection, schedule: Q01DX009 (ip), vehicle: saline) is reported as 102 % of control and 111 % of control and the T/C (dose: 0.09 mg/kg/injection, schedule: Q04DX003 (ip), vehicle: saline) is reported as 100 % of control and 122 % of control. The T/C (dose: 0.18 mg/kg/injection, schedule: Q01DX009 (ip), vehicle: saline) was 108 % of control and 120 % of control, the T/C (dose: 0.18 mg/kg/injection, schedule: Q04DX003 (ip), vehicle: saline) was 104 % of control and 113 % of control and the T/C (dose: 0.37 mg/kg/injection, schedule: Q01DX009 (ip), vehicle: saline) was 168 % of control. For the same molecule, the T/C (dose: 0.37 mg/kg/injection, schedule: Q04DX003 (ip), vehicle: saline) was 113 % of control and 114 % of control, the T/C (dose: 0.75 mg/kg/injection, schedule: Q01DX001 (ip), vehicle: saline) was 120 % of control and the T/C (dose: 0.75 mg/kg/injection, schedule: Q01DX009 (ip), vehicle: saline) was 151 % of control. The T/C (dose: 0.75 mg/kg/injection, schedule: Q04DX003 (ip), vehicle: saline) was 120 % of control and 124 % of control, the T/C (dose: 1.5 mg/kg/injection, schedule: Q01DX001 (ip), vehicle: saline) was 168 % of control and the T/C (dose: 1.5 mg/kg/injection, schedule: Q01DX009 (ip), vehicle: saline) was 191 % of control and 212 % of control. The T/C (dose: 1.5 mg/kg/injection, schedule: Q04DX003 (ip), vehicle: saline) was 157 % of control, the T/C (dose: 3.0 mg/kg/injection, schedule: Q01DX001 (ip), vehicle: saline) was 157 % of control and the T/C (dose: 3.0 mg/kg/injection, schedule: Q01DX009 (ip), vehicle: saline) was 93 % of control and 117 % of control. The T/C (dose: 3.0 mg/kg/injection, schedule: Q04DX003 (ip), vehicle: saline) was 175 % of control, the T/C (dose: 3.12 mg/kg/injection, schedule: Q04DX003 (ip), vehicle: saline) was 150 % of control and the T/C (dose: 6.0 mg/kg/injection, schedule: Q04DX003 (ip), vehicle: saline) was 101 % of control. The T/C (dose: 6.25 mg/kg/injection, schedule: Q04DX003 (ip), vehicle: saline) was 95 % of control.

With `CCOC(=O)n1cnc2nc(N)nc(SC)c21` the T/C (dose: 50.0 mg/kg/injection, schedule: Q01DX001 (ip), vehicle: saline) was 103 % of control, the T/C [11] was 97 % of control and the T/C [12] was 100 % of control. For the same molecule, the T/C [13] was 122 % of control.

In the case of `[N-]=[N+]=CC(=O)OCC(N)C(=O)O` (stereo not drawn), the T/C (dose: 100.0 mg/kg/injection, schedule: Q01DX009 (ip), vehicle: water) is reported as 103 % of control, the T/C (dose: 200.0 mg/kg/injection, schedule: Q01DX009 (ip), vehicle: water) is reported as 105 % of control and the T/C (dose: 400.0 mg/kg/injection, schedule: Q01DX009 (ip), vehicle: water) is reported as 89 % of control.

In the case of `COc1ccc(OC)c(NC(=O)Nc2ccc(SC)cc2)c1`, the T/C [14] is reported as 96 % of control, the T/C [15] is reported as 90 % of control and the T/C [16] is reported as 98 % of control.

With `OC(c1ccc(Br)cc1)C(O)c1ccc(Br)cc1` (stereo not drawn) the T/C (dose: 50.0 mg/kg/injection, schedule: Q04DX002 (ip), vehicle: saline with Tween-80) was 104 % of control, the T/C (dose: 100.0 mg/kg/injection, schedule: Q04DX002 (ip), vehicle: saline with Tween-80) was 104 % of control and the T/C (dose: 200.0 mg/kg/injection, schedule: Q04DX002 (ip), vehicle: saline with Tween-80) was 97 % of control.

`O=C(Oc1cccc([N+](=O)[O-])c1)c1ccc([N+](=O)[O-])cc1O` was tested, and the T/C [11] was 95 % of control, the T/C [12] was 95 % of control and the T/C [13] was 97 % of control.

In the case of `CCC1CN2C(=N1)c1cc(Cl)ccc1-c1ccc(Cl)cc12` (stereo not drawn), the T/C [14] is reported as 95 % of control, the T/C [1] is reported as 101 % of control and the T/C [15] is reported as 98 % of control. For the same molecule, the T/C [2] was 103 % of control and the T/C [17] was 116 % of control.

With `Cc1ccc(S(=O)(=O)N(C)c2cc(Cl)c(C(=O)O)cc2Cl)cc1` the T/C (dose: 100.0 mg/kg/injection, schedule: Q04DX003 (ip), vehicle: acetone) was 90 % of control, the T/C (dose: 200.0 mg/kg/injection, schedule: Q04DX003 (ip), vehicle: acetone) was 93 % of control and the T/C (dose: 400.0 mg/kg/injection, schedule: Q04DX003 (ip), vehicle: acetone) was 90 % of control.

For `O=C1CC(c2ccc(O)cc2)C2(O1)C(=O)OC(C(O)CO)C2O` (stereo not drawn), the T/C [11] was 98 % of control, the T/C [12] was 101 % of control and the T/C [13] was 96 % of control.

With `O=c1cc(-c2ccccc2)cc(-c2ccccc2)o1` the T/C [14] was 102 % of control, the T/C [1] was 96 % of control and the T/C [15] was 96 % of control. The T/C [2] was 100 % of control, the T/C [16] was 96 % of control and the T/C [17] was 94 % of control.

For `CC(=O)OCC1OC(Oc2ccccc2)C(OC(C)=O)C(OC(C)=O)C(OC(C)=O)C1OC(C)=O` (stereo not drawn), the T/C (dose: 50.0 mg/kg/injection, schedule: Q01DX009 (ip), vehicle: Klucel (hydroxypropylcellulose) (HPC)) was 104 % of control, the T/C [14] was 96 % of control and the T/C [15] was 96 % of control.

`C1CCC(NCCNC2CCCCC2)CC1` was tested, and the T/C (dose: 75.0 mg/kg/injection, schedule: Q01DX001 (ip), vehicle: saline) was 98 % of control.

For `CN(C)c1ccc(/C=C/c2cnccn2)cc1`, the T/C (dose: 25.0 mg/kg/injection, schedule: Q01DX009 (ip), vehicle: Klucel (hydroxypropylcellulose) (HPC)) was 107 % of control, the T/C [1] was 94 % of control and the T/C [2] was 93 % of control.

`Cc1no[n+]([O-])c1[N+](=O)[O-]` was tested, and the T/C (dose: 5.0 mg/kg/injection, schedule: Q01DX009 (ip), vehicle: saline) was 100 % of control, the T/C (dose: 10.0 mg/kg/injection, schedule: Q01DX009 (ip), vehicle: saline) was 101 % of control and the T/C (dose: 20.0 mg/kg/injection, schedule: Q01DX009 (ip), vehicle: saline) was 102 % of control.

`O=C(Nc1ccc(Cl)cc1)Nc1ccccc1F` was tested, and the T/C [6] was 91 % of control and the T/C [7] was 89 % of control.
